Assay [1] deals with Hematopoietic stem/progenitor cells isolated from umbilical cord blood. Description: Long Term Culture-Colony Forming Cell (LTC-CFC) assay of bag-cultured HSC. Format: cell-based, human. Here is the method: FIGS. 1A-1C are a graphic representation of the ex-vivo expansion and inhibition of differentiation of stem cells in a static bioreactor. Hematopoietic stem/progenitor cells isolated from umbilical cord blood (UCB) mononuclear cells by magnetic activated cell sorting (MACS technology, Milteny, Bergisch-Gladbach, GmbH) were seeded in static bioreactors (gas permeable culture bags) at concentrations of 1×10^4 cells/ml in MEM-alpha with 10% Fetal Calf Serum (FCS) containing 50 ng/ml of the following cytokines: SCF, TPO, Flt-3, IL-6, with (TEPA) or without (control) added copper chelator tetraethylenepentamine (TEPA, Aldrich, Milwaukee Wis., USA) (5 μM), and incubated for at least three weeks in a 5% CO2 humidified incubator. […] CFUc frequency was calculated as number of CFUc per number of cells.
Self-Renewal Potential Evaluations: The self-renewal potential of stem cells was determined in vitro by long-term colony formation. […] The resulting colonies were scored after two weeks of incubation at 37° C. in a humidified atmosphere of 5% CO2 in air. […]
Calculations: Ex vivo expansion of TNC, CD133, CD133+CD34− cells and CFUc are reported either as cumulative numbers; number of cells per ml multiply by the final culture volume, or as fold-expansion; cumulative numbers divided by initial seeding cell number. CFUc frequency is calculated as number of colonies divided by cell number. […]

For assay [2] the test system is unchanged. Description: Ex vivo expansion of HSC with copper chelator in a gas permeable culture bag (static bioreactor). Format: cell-based, human.
Experimental: Hematopoietic stem/progenitor cells isolated from umbilical cord blood (UCB) mononuclear cells by magnetic activated cell sorting (MACS technology, Milteny, Bergisch-Gladbach, GmbH) were seeded in static bioreactors (gas permeable culture bags) at concentrations of 1×10^4 cells/ml in MEM-alpha with 10% Fetal Calf Serum (FCS) containing 50 ng/ml of the following cytokines: SCF, TPO, Flt-3, IL-6, with (TEPA) or without (control) added copper chelator tetraethylenepentamine (TEPA, Aldrich, Milwaukee Wis., USA) (5 μM), and incubated for at least three weeks in a 5% CO2 humidified incubator. […] Cell Cultures of Human Hematopoietic Stem/Progenitor Cells: Human umbilical cord blood cells were obtained from umbilical cord blood after normal full-term delivery (informed consent was given). MPB, or BM were obtained from donations (informed consent was given). Samples were either used fresh or collected and frozen according to well known cord blood cryopreservation protocol (Rubinstein et al. 1995) within 24 h postpartum for UCB or according to common practice regarding MPB and BM. Prior to cryopreservation, blood was sedimented for 30 minutes on […] Starch (hydroxyethyl starch) to remove most RBC. Prior to their use, the cells were thawed in Dextran buffer (Sigma, St. Louis, Mo., USA) containing 2.5% human serum albumin (HSA) (Bayer Corp. Elkhart, Ind., USA) and processed as described herein below. Following thawing, where indicated, the leukocyte-rich fraction was harvested and layered on Ficoll-Hypaque gradient (1.077 g/mL; Sigma Inc, St Louis Mo., USA), and centrifuged at 400X g for 30 minutes. The mononuclear cell fraction in the interface layer was then collected, washed three times, and re-suspended in phosphate-buffered saline (PBS) (Biological Industries, Bet HaEmek, Israel) containing 0.5% human serum albumin (HSA) (Bayer Corp. Elkhart, Ind., USA). The CD133^+ cell fraction was purified as follows: Either the mononuclear cell fraction was subjected to two cycles of immuno-magnetic separation using the “MiniMACS CD133 stem cell isolation kit” (Miltenyi Biotec, Auburn, Calif.) or the unfractionated preparation was isolated on the CliniMACS device using CD133^+ CliniMACS (Miltenyi Biotec, Auburn, Calif.) reagent, accordingly, following the manufacturer's recommendations (in the latter, the Ficoll-Hypaque gradient stage was omitted). The purity of the CD133^+ population thus obtained was 80-95%, as evaluated by flow cytometry. […]
The subject of assay [3] is cord-blood-derived, bone marrow-derived, and peripheral blood derived stem and progenitor cells. The note with it: grown without a feeder layer; cited from earlier work.
[4] abbreviates: static bioreactor (VueLife FEP Teflon bag), compared with cells cultured without TEPA.

Entries after “also recorded” stand apart in the source; their conditions may differ.

With `NCCNCCNCCNCCN` [TEPA, tetraethylenepentamine], in assay [1] (5 μM TEPA vs control cells grown with cytokines but not TEPA), the “LTC-CFC numbers (colonogenic potential, CFUs)” value is recorded as “at least one order of magnitude; also recorded: predominance of CFUs”. The “functional characteristics (colonogenic potential)” value in assay [1] (setting [4]) is reported as “superior”. Also, in assay [2] (5 μM TEPA, three weeks, static bioreactor (culture bag), vs cytokines without TEPA), the “fold expansion of immature subpopulations of HSC (CD34+/CD38− and CD34+/lin−)” value is “dramatically increases; also recorded: predominance of undifferentiated CD34^+/CD38^− and CD34^+/lin^−”. Moreover, in assay [2] (short and long term culture in a static bioreactor, compared with cytokine-only cultures), the “fraction of self-renewing, undifferentiated cells” value is listed as “dramatically increased”. Moreover, in assay [2] (setting [4]), the “population of ex-vivo cultured stem and/or progenitor cells” value is given as “greatly expanded”. Moreover, in assay [3], the “fraction of CD34+ cell” value was “greatly enhanced” and the long-term clonability result is “greatly enhanced”.
